Here are results for 34 molecules from patent US9556132B2, “Tetrazole derivatives and their use as potassium channel modulators” (SANIONA A/S, priority 2012, dated 2017).

This assay addresses human IK (Homo sapiens (Human), UniProt O15554). Kind of assay: Inhibition of IK channels expressed in HEK293 cells, thallium (I) sensitive FLIPR assay. It is filed as cell-based. The conditions noted are these: HEK293 cells over-expressing human IK; Tl+-sensitive BTC fluorescence (FLIPR); inhibition of activity induced by Ca2+-ionophore A23187. The procedure: Following experiment determines the ability of a test compound to inhibit the activity of IK channels heterologously expressed in human HEK293 cells, and was used as the primary screen. The ability is determined as per cent inhibition of the activity induced by addition of the Ca^2+-ionophore A23187 (considered a maximum response). The activity is determined using a standard thallium (I) sensitive assay, e.g. using a fluorometric method in a Fluorescent Image Plate Reader (FLIPR) as described below in more detail.
Full concentration/response curves are generated and IC50 values are calculated based on the degree of inhibition of the maximum response. IC50 values (Inhibitory Concentration) represent the concentration of the test substance at which 50% of the maximum channel activity is inhibited.
Human HEK293 cells over-expressing human IK are grown in culture medium (DMEM supplemented with 10% foetal bovine serum), in polystyrene culture flasks ([…]) in a humidified atmosphere of 5% CO2 in air, at 37° C. Cell confluence should be 80-90% on day of plating. Cells are rinsed with 4 mL of PBS (phosphate buffered saline) and incubated 2 min with 1 mL of Trypsin-EDTA. After addition of 25 mL of culture medium cells are re-suspended by trituration with a 25 mL pipette.
The cells are seeded at a density of ˜3×10^6 cells/mL (25 μL/well) in black-walled, clear bottom, 384-well plates pre-treated with 0.01 g/L poly-D-lysin (20 μL/well for ≧30 min). Plated cells were allowed to proliferate for 24 h before loading with dye.
BTC-AM ([…], Invitrogen) is added 25.5 μl DMSO. The BTC-AM stock solution (2 mM) is diluted to a final concentration of 2 μM in […] assay buffer (in mM: 140 Na^+-gluconate, 2.5 K^+-gluconate, 6 Ca2^+-gluconate, 1 Mg^2+ gluconate, 5 glucose, 10 HEPES, pH 7.3) containing 2 μM ouabain, 2 mM amaranth and 1 mM tartrazine.
The culture medium is aspirated from the wells, and 25 μl of the BTC-AM loading solution are added to each well. The cells are incubated at 37° C. for 60 min.
After the loading period, the Tl^+-sensitive BTC fluorescence signal is measured over time using a FLIPR.
• Temperature: Room temp. • First addition: 12 μl test or control compound after 15 sec at a rate of 30 μL/sec and starting height of 20 μL • Second addition: 12 μL stimulus buffer (Cl^− free assay buffer supplemented with 1 mM Tl2SO4, 5 μM A23187 as well as the quenchers amaranth (2 mM) and tartrazine (1 mM)) is added after an additional 3 minutes at a rate of 30 μL/sec and starting height of 30 μL • Reading intervals: First sequence—3 sec×5, 2 sec×24 and 5 sec×25 • Second sequence—1 sec×5, 2 sec×24 and 5 sec×36
Addition plates (compound plate and stimulus plate) are placed in positions 2 and 3, respectively. Cell plates are placed in position 1 and run using the “IK blocker (EtOH wash, two additions)” program. FLIPR will then take the appropriate measurements in accordance with the interval settings above. Fluorescence obtained after stimulation is corrected for the mean basal fluorescence (in Cl^− free assay buffer).
Full concentration/response curves are generated and IC50 values (“Inhibitory Concentration”, i.e. the concentration of the test substance at which 50% of the maximum channel activity is inhibited) are calculated. The responses are calculated based on peak values.
With `COc1ccccc1-c1ccccc1-c1nnnn1-c1ccccc1Cl` [Compound 49, 1-(2-Chlorophenyl)-5-[2-(2-methoxyphenyl)phenyl]-1H-1,2,3,4-tetrazole], the IC50 stood at 540 nM. That is a sub-micromolar value. Consider `Fc1ccccc1-n1nnnc1-c1ccccc1-c1ccccc1Br` [Compound 23, 5-[2-(2-Bromophenyl)phenyl]-1-(2-fluorophenyl)-1H-1,2,3,4-tetrazole], for which the concentration for half-maximal inhibition (IC50) was 550 nM.

The molecule `FCOc1ccccc1-c1ccccc1-c1nnnn1-c1ccccc1F` [Compound 12, 5-{2-[2-(Fluoromethoxy)phenyl]phenyl}-1-(2-fluorophenyl)-1H-1,2,3,4-tetrazole] had an IC50 of 300 nM. Against the preceding molecule, the IC50 is about 1.8-fold lower.

`Fc1ccccc1-n1nnnc1-c1ccccc1-c1ccccc1OC(F)F` [Compound 5, 5-{2-[2-(Difluoromethoxy)phenyl]phenyl}-1-(2-fluorophenyl)-1H-1,2,3,4-tetrazole]: the concentration for half-maximal inhibition (IC50) came to 290 nM. The IC50 values of the last two molecules are within 1.5-fold of each other. Take `COC(=O)COc1ccccc1-c1ccccc1-c1nnnn1-c1ccccc1F` [Compound 8, Methyl 2-(2-{2-[1-(2-fluorophenyl)-1H-1,2,3,4-tetrazol-5-yl]phenyl}phenoxy)acetate]: the IC50 is 590 nM. With `COc1ccccc1-c1ccccc1-c1nnnn1-c1ccccc1OC(F)F` [Compound 59, 1-[2-(Difluoromethoxy)phenyl]-5-[2-(2-methoxyphenyl)phenyl]-1H-1,2,3,4-tetrazole], inhibition was half-maximal at 69 nM (IC50). The same measure for `COCOc1ccccc1-c1ccccc1-c1nnnn1-c1ccccc1F` [Compound 16, 1-(2-Fluorophenyl)-5-{2-[2-(methoxymethoxy)phenyl]phenyl}-1H-1,2,3,4-tetrazole]: 190 nM; for `COc1ccccc1-c1ccccc1-c1nnnn1-c1ccccc1C#N` [Compound 56, 2-{5-[2-(2-Methoxyphenyl)phenyl]-1H-1,2,3,4-tetrazol-1-yl}benzonitrile]: 64 nM; for `COc1ccccc1-c1ccccc1-c1nnnn1-c1ccccc1OC` [Compound 51, 1-(2-Methoxyphenyl)-5-[2-(2-methoxyphenyl)phenyl]-1H-1,2,3,4-tetrazole]: 1200 nM. For `CN(C)c1ccccc1-c1ccccc1-c1nnnn1-c1ccccc1F` [Compound 26, 2-{2-[1-(2-Fluorophenyl)-1H-1,2,3,4-tetrazol-5-yl]phenyl}-N,N-dimethylaniline], the IC50 turned out to be 820 nM. Turning to `CSc1ccccc1-c1ccccc1-c1nnnn1-c1ccccc1F` [Compound 14, 1-(2-Fluorophenyl)-5-{2-[2-(methylthio)phenyl]phenyl}-1H-1,2,3,4-tetrazole], inhibition was half-maximal at 460 nM (IC50).

Molecule `Fc1ccccc1-n1nnnc1-c1ccccc1-c1ccccc1C(F)(F)F` [Compound 22, 1-(2-Fluorophenyl)-5-{2-[2-(trifluoromethyl)phenyl]phenyl}-1H-1,2,3,4-tetrazole] yielded a 50% inhibitory concentration (IC50) of 1700 nM. `Fc1ccccc1-n1nnnc1-c1ccccc1-c1ccccc1C(F)F` [Compound 32, 5-{2-[2-(Difluoromethyl)phenyl]phenyl}-1-(2-fluorophenyl)-1H-1,2,3,4-tetrazole]: 870 nM corresponded to half-maximal inhibition (IC50). The same measure for `OCc1ccccc1-c1ccccc1-c1nnnn1-c1ccccc1F` [Compound 28, (2-{2-[1-(2-Fluorophenyl)-1H-1,2,3,4-tetrazol-5-yl]phenyl}phenyl)methanol]: 770 nM; for `Fc1ccccc1-n1nnnc1-c1ccccc1-c1ccccc1Cl` [Compound 24, 5-[2-(2-Chlorophenyl)phenyl]-1-(2-fluorophenyl)-1H-1,2,3,4-tetrazole]: 360 nM.

In the case of `Fc1ccccc1-c1ccccc1-c1nnnn1-c1ccccc1OC(F)F` [Compound 58, 1-[2-(Difluoromethoxy)phenyl]-5-[2-(2-fluorophenyl)phenyl]-1H-1,2,3,4-tetrazole], the half-inhibitory concentration (IC50) was 1100 nM.

On to `COc1ccccc1-n1nnnc1-c1ccccc1-c1ccccc1F` [Compound 54, 5-[2-(2-Fluorophenyl)phenyl]-1-(2-methoxyphenyl)-1H-1,2,3,4-tetrazole], for which the concentration for half-maximal inhibition (IC50) came out at 780 nM. This IC50 and that of the molecule before are within 1.5-fold of each other. The same measure for `CC(C)Oc1ccccc1-c1ccccc1-c1nnnn1-c1ccccc1F` [Compound 9, 1-(2-Fluorophenyl)-5-{2-[2-(propan-2-yloxy)phenyl]phenyl}-1H-1,2,3,4-tetrazole]: 770 nM; for `FCc1ccccc1-c1ccccc1-c1nnnn1-c1ccccc1F` [Compound 33, 5-{2-[2-(Fluoromethyl)phenyl]phenyl}-1-(2-fluorophenyl)-1H-1,2,3,4-tetrazole]: 17 nM; for `CCc1ccccc1-c1ccccc1-c1nnnn1-c1ccccc1F` [Compound 20, 5-[2-(2-Ethylphenyl)phenyl]-1-(2-fluorophenyl)-1H-1,2,3,4-tetrazole]: 290 nM. For the molecule `Cc1ccccc1-c1ccccc1-c1nnnn1-c1ccccc1F` [Compound 19, 1-(2-Fluorophenyl)-5-[2-(2-methylphenyl)phenyl]-1H-1,2,3,4-tetrazole], half-maximal inhibition (IC50) was put at 510 nM. Regarding `NC(=O)COc1ccccc1-c1ccccc1-c1nnnn1-c1ccccc1F` [Compound 17, 2-(2-{2-[1-(2-Fluorophenyl)-1H-1,2,3,4-tetrazol-5-yl]phenyl}phenoxy)acetamide], the midpoint of inhibition, the IC50, lay at 1000 nM. For `N#Cc1ccccc1-c1ccccc1-c1nnnn1-c1ccccc1F` [Compound 31, 2-{2-[1-(2-Fluorophenyl)-1H-1,2,3,4-tetrazol-5-yl]phenyl}benzonitrile] the value was 110 nM; for `Fc1ccccc1-n1nnnc1-c1ccccc1-c1ccccc1` [Compound 40, 1-(2-Fluorophenyl)-5-(2-phenylphenyl)-1H-1,2,3,4-tetrazole], 800 nM.

For `Fc1ccccc1-c1ccccc1-c1nnnn1-c1ccccc1Cl` [Compound 48, 1-(2-Chlorophenyl)-5-[2-(2-fluorophenyl)phenyl]-1H-1,2,3,4-tetrazole], 1000 nM corresponded to half-maximal inhibition (IC50). For `N#CCOc1ccccc1-c1ccccc1-c1nnnn1-c1ccccc1F` [Compound 7, 2-(2-{2-[1-(2-Fluorophenyl)-1H-1,2,3,4-tetrazol-5-yl]phenyl}phenoxy)acetonitrile] the value was 16 nM. For `Fc1ccccc1-n1nnnc1-c1ccccc1-c1ccccc1OCC1CC1` [Compound 6, 5-{2-[2-(Cyclopropylmethoxy)phenyl]phenyl}-1-(2-fluorophenyl)-1H-1,2,3,4-tetrazole], half-maximal inhibition (IC50) was put at 710 nM. In turn, `Fc1ccccc1-n1nnnc1-c1ccccc1-c1ccccc1OC(F)(F)F` [Compound 15, 1-(2-Fluorophenyl)-5-{2-[2-(trifluoromethoxy)phenyl]phenyl}-1H-1,2,3,4-tetrazole] showed a 50% inhibitory concentration (IC50) of 1700 nM. `Fc1ccccc1-c1ccccc1-c1nnnn1-c1ccccc1F` [Compound 25, 1-(2-Fluorophenyl)-5-[2-(2-fluorophenyl)phenyl]-1H-1,2,3,4-tetrazole]: the 50% inhibitory concentration (IC50) worked out at 700 nM. The molecule `Oc1ccccc1-c1ccccc1-c1nnnn1-c1ccccc1F` [Compound 2, 2-{2-[1-(2-Fluorophenyl)-1H-1,2,3,4-tetrazol-5-yl]phenyl}phenol] had an IC50 of 5900 nM. The molecule `CCOc1ccccc1-c1ccccc1-c1nnnn1-c1ccccc1F` [Compound 3, 5-[2-(2-Ethoxyphenyl)phenyl]-1-(2-fluorophenyl)-1H-1,2,3,4-tetrazole] showed an IC50 of 37 nM. In turn, `COCc1ccccc1-c1ccccc1-c1nnnn1-c1ccccc1F` [Compound 29, 1-(2-Fluorophenyl)-5-{2-[2-(methoxymethyl)phenyl]phenyl}-1H-1,2,3,4-tetrazole] returned an IC50 of 58 nM. As for `COc1ccccc1-c1ccccc1-c1nnnn1-c1ccccc1O` [Compound 53, 2-{5-[2-(2-Methoxyphenyl)phenyl]-1H-1,2,3,4-tetrazol-1-yl}phenol], the 50% inhibitory concentration (IC50) came to 1200 nM. This IC50 lies about 21-fold higher than the previous one. `O/N=C/c1ccccc1-c1ccccc1-c1nnnn1-c1ccccc1F` [Compound 30, (E)-N-[(2-{2-[1-(2-Fluorophenyl)-1H-1,2,3,4-tetrazol-5-yl]phenyl}phenyl)methylidene]hydroxylamine] came in with an IC50 of 57 nM. Against the preceding molecule, the IC50 is about 21-fold lower.
